One test is filed under the species Homo sapiens. Description: Selectivity index, ratio of IC50 for ACAT1 (unknown origin) to IC50 for ACAT2 (unknown origin).
Test [1] has as its target T1, Sterol O-acyltransferase 2 (Homo sapiens, UniProt O75908).
T1 sequence (O75908 whole entry): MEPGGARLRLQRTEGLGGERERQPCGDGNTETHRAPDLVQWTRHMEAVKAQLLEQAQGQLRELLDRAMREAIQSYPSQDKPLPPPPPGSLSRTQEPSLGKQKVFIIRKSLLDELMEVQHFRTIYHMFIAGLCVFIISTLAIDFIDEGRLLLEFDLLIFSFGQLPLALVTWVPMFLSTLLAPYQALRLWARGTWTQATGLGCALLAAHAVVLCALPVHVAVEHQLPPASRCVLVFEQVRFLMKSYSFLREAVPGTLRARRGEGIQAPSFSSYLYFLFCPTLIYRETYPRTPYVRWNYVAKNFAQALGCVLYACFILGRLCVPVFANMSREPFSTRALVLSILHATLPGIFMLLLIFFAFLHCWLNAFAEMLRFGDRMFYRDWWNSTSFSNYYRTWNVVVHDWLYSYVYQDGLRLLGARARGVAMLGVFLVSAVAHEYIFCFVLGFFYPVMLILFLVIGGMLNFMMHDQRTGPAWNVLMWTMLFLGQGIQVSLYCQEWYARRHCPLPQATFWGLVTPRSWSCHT
Description: Inhibition of ACAT2 (unknown origin).

Test [2] deals with T2, Sterol O-acyltransferase 1 (Homo sapiens, UniProt P35610).
T2 sequence (P35610 whole entry): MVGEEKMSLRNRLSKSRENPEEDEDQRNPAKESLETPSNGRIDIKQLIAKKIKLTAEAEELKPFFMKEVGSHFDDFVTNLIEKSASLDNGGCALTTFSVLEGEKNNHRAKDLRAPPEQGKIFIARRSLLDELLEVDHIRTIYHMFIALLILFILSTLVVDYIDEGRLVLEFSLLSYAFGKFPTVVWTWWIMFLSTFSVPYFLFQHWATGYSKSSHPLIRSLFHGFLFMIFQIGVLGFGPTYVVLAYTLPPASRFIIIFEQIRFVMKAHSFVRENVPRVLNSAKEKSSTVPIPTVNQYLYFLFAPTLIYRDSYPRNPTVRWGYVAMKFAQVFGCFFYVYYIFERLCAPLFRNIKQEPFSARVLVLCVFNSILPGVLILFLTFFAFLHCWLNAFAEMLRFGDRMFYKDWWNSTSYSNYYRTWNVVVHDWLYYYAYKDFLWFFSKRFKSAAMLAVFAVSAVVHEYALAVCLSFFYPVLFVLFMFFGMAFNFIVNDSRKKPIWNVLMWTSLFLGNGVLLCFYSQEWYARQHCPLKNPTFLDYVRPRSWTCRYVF
The test is described as follows: Inhibition of ACAT1 (unknown origin).

Among the data in ChEMBL document CHEMBL2396612 (Bioorg Med Chem Lett, 2013) are Ratio IC50 and IC50 values, retold here.

SMILES strings stand for the structures. Bounds are passed on as bounds.

The term IC50 denotes the concentration that inhibits the measured activity by half. Lower therefore signals greater potency in that assay. For `CCCCC(=O)O[C@H]1C[C@H]2[C@]3(C)CO[C@@H](c4ccccc4C)O[C@H]3CC[C@]2(C)[C@H]2[C@@H](O)c3c(cc(-c4cccnc4)oc3=O)O[C@]12C`, the Ratio IC50 in the test listed under Homo sapiens is 320. In addition, the IC50 in test [1] came to 10 nM; in test [2] it was 3200 nM.
Molecule `Cc1ccccc1[C@@H]1OC[C@@]2(C)[C@@H]3C[C@H](OC(=O)c4ccc(F)cc4)[C@@]4(C)Oc5cc(-c6cccnc6)oc(=O)c5[C@H](O)[C@@H]4[C@@]3(C)CC[C@@H]2O1` came in with an IC50 in test [1] of 23 nM.
`C[C@@]12CO[C@@H](c3ccccc3)O[C@H]1CC[C@@]1(C)[C@H]2C[C@H](OC(=O)c2cccc(C#N)c2)[C@@]2(C)Oc3cc(-c4cccnc4)oc(=O)c3[C@H](O)[C@H]12`: the Ratio IC50 in the test filed under Homo sapiens amounted to 73.3. Besides, the figures for the IC50 in test [1] and in test [2] were 30 nM and 2200 nM, respectively.
As for `C[C@@]12CO[C@@H](c3ccccc3)O[C@H]1CC[C@@]1(C)[C@H]2C[C@H](OC(=O)c2ccccc2Cl)[C@@]2(C)Oc3cc(-c4cccnc4)oc(=O)c3[C@H](O)[C@H]12`, the Ratio IC50 in the test listed under Homo sapiens turned out to be 16.2. Moreover, the results for the IC50 in test [1] and in test [2] were 110 nM and 1780 nM, respectively.
As to `C[C@@]12CO[C@@H](c3ccccc3)O[C@H]1CC[C@@]1(C)[C@H]2C[C@H](OC(=O)c2ccc(Br)cc2)[C@@]2(C)Oc3cc(-c4cccnc4)oc(=O)c3[C@H](O)[C@H]12`, the Ratio IC50 in the test filed under Homo sapiens was determined as 690. In addition, the figures for the IC50 in test [1] and in test [2] were 10 nM and 6900 nM, respectively.
For `C[C@@]12CO[C@@H](c3ccccc3)O[C@H]1CC[C@@]1(C)[C@H]2C[C@H](OC(=O)c2cccc(F)c2)[C@@]2(C)Oc3cc(-c4cccnc4)oc(=O)c3[C@H](O)[C@H]12`, in that order: 231, 13 nM and 3000 nM.
As to `C[C@@]12CO[C@@H](c3ccccc3)O[C@H]1CC[C@@]1(C)[C@H]2C[C@H](OC(=O)c2ccc(Cl)cc2)[C@@]2(C)Oc3cc(-c4cccnc4)oc(=O)c3[C@H](O)[C@H]12`, in the test filed under Homo sapiens, the Ratio IC50 worked out at 644. For the same molecule, the results for the concentration for half-maximal inhibition (IC50) in test [1] and in test [2] were 9 nM and 5800 nM, respectively.
Turning to `CC(=O)OC[C@@]1(C)[C@@H]2C[C@H](OC(=O)c3ccc(C#N)cc3)[C@@]3(C)Oc4cc(-c5cccnc5)oc(=O)c4[C@H](O)[C@@H]3[C@@]2(C)CC[C@@H]1OC(C)=O`, the Ratio IC50 in the test listed under Homo sapiens is 4620.
With `COc1ccc(C(=O)O[C@H]2C[C@H]3[C@]4(C)CO[C@@H](c5ccccc5)O[C@H]4CC[C@]3(C)[C@H]3[C@@H](O)c4c(cc(-c5cccnc5)oc4=O)O[C@]23C)cc1`, in the test listed under Homo sapiens, the Ratio IC50 turned out to be 493. Also, the IC50 was found to be 14 nM in test [1] and 6900 nM in test [2].
In the same order, the values of `COc1ccccc1C(=O)O[C@H]1C[C@H]2[C@]3(C)CO[C@@H](c4ccccc4)O[C@H]3CC[C@]2(C)[C@H]2[C@@H](O)c3c(cc(-c4cccnc4)oc3=O)O[C@]12C` are 10.5, 320 nM and 3400 nM.
Take `C[C@@]12CO[C@@H](c3ccccc3)O[C@H]1CC[C@@]1(C)[C@H]2C[C@H](OC(=O)c2ccc(C#N)cc2)[C@@]2(C)Oc3cc(-c4cccnc4)oc(=O)c3[C@H](O)[C@H]12`: the Ratio IC50 in the test listed under Homo sapiens worked out at 467. Also, the IC50 in test [1] is 6 nM; in test [2], 2800 nM.
In the same order, the values of `C[C@@]12CO[C@@H](c3cccc4ccccc34)O[C@H]1CC[C@@]1(C)[C@H]2C[C@H](OC(=O)c2ccc(C#N)cc2)[C@@]2(C)Oc3cc(-c4cccnc4)oc(=O)c3[C@H](O)[C@H]12` are above 2980, 23.2 nM and above 69100 nM.
With `CCCCC(=O)O[C@H]1C[C@H]2[C@]3(C)CO[C@@H](c4ccccc4)O[C@H]3CC[C@]2(C)[C@H]2[C@@H](O)c3c(cc(-c4cccnc4)oc3=O)O[C@]12C`, in the test filed under Homo sapiens, the Ratio IC50 was determined as 200. The results for the IC50 in test [1] and in test [2] were 20 nM and 4000 nM, respectively.
On to `Cc1cccc([C@@H]2OC[C@@]3(C)[C@@H]4C[C@H](OC(=O)c5ccc(F)cc5)[C@@]5(C)Oc6cc(-c7cccnc7)oc(=O)c6[C@H](O)[C@@H]5[C@@]4(C)CC[C@@H]3O2)c1`, for which the Ratio IC50 in the test filed under Homo sapiens was 200. The IC50 in test [1] came out at 47.6 nM; in test [2] it was 9510 nM.
As to `C[C@@]12CO[C@@H](c3ccccc3)O[C@H]1CC[C@@]1(C)[C@H]2C[C@H](OC(=O)c2cccc(Br)c2)[C@@]2(C)Oc3cc(-c4cccnc4)oc(=O)c3[C@H](O)[C@H]12`, the Ratio IC50 in the test filed under Homo sapiens was 143. In addition, the concentration for half-maximal inhibition (IC50) in test [1] came to 30 nM; in test [2], 4300 nM.
In test [1], `C[C@@]12CO[C@@H](c3ccccc3)O[C@H]1CC[C@@]1(C)[C@H]2C[C@H](OC(=O)c2ccccc2C#N)[C@@]2(C)Oc3cc(-c4cccnc4)oc(=O)c3[C@H](O)[C@H]12` had an IC50 of 320 nM.
Take `COc1cccc(C(=O)O[C@H]2C[C@H]3[C@]4(C)CO[C@@H](c5ccccc5)O[C@H]4CC[C@]3(C)[C@H]3[C@@H](O)c4c(cc(-c5cccnc5)oc4=O)O[C@]23C)c1`: the Ratio IC50 in the test filed under Homo sapiens stood at 61.4. The IC50 in test [1] came to 70 nM; in test [2], 4300 nM.
For `Cc1ccc([C@@H]2OC[C@@]3(C)[C@@H]4C[C@H](OC(=O)c5ccc(C#N)cc5)[C@@]5(C)Oc6cc(-c7cccnc7)oc(=O)c6[C@H](O)[C@@H]5[C@@]4(C)CC[C@@H]3O2)cc1`, in that order: 836, 9.7 nM and 8110 nM.
In the case of `C[C@@]12CO[C@@H](c3ccccc3)O[C@H]1CC[C@@]1(C)[C@H]2C[C@H](OC(=O)c2ccccc2F)[C@@]2(C)Oc3cc(-c4cccnc4)oc(=O)c3[C@H](O)[C@H]12`, the Ratio IC50 in the test listed under Homo sapiens is 54. The concentration for half-maximal inhibition (IC50) in test [1] stood at 50 nM; in test [2], 2700 nM.
For the molecule `C[C@@]12CO[C@@H](c3ccccc3F)O[C@H]1CC[C@@]1(C)[C@H]2C[C@H](OC(=O)c2ccc(C#N)cc2)[C@@]2(C)Oc3cc(-c4cccnc4)oc(=O)c3[C@H](O)[C@H]12`, in test [1], the IC50 was found to be 6.8 nM.
For the molecule `Cc1ccc([C@@H]2OC[C@@]3(C)[C@@H]4C[C@H](OC(=O)c5ccc(C#N)cc5)[C@@]5(C)Oc6cc(-c7cccnc7)oc(=O)c6[C@H](O)[C@@H]5[C@@]4(C)CC[C@@H]3O2)c(C)c1`, the Ratio IC50 in the test filed under Homo sapiens was determined as 1520. Moreover, the values for the concentration for half-maximal inhibition (IC50) in test [1] and in test [2] were 6.6 nM and 10000 nM, respectively.
In the same order, the values of `Cc1ccccc1[C@@H]1OC[C@@]2(C)[C@@H]3C[C@H](OC(=O)c4ccc(C#N)cc4)[C@@]4(C)Oc5cc(-c6cccnc6)oc(=O)c5[C@H](O)[C@@H]4[C@@]3(C)CC[C@@H]2O1` are above 6160, 11.8 nM and above 72800 nM.
In the case of `C[C@@]12CO[C@@H](c3ccccc3)O[C@H]1CC[C@@]1(C)[C@H]2C[C@H](OC(=O)c2cccc(Cl)c2)[C@@]2(C)Oc3cc(-c4cccnc4)oc(=O)c3[C@H](O)[C@H]12`, the Ratio IC50 in the test listed under Homo sapiens was 142. Also, the IC50 in test [1] is 19 nM; in test [2], 2700 nM.
Consider `C[C@@]12CO[C@@H](c3ccccc3)O[C@H]1CC[C@@]1(C)[C@H]2C[C@H](OC(=O)c2ccc([N+](=O)[O-])cc2)[C@@]2(C)Oc3cc(-c4cccnc4)oc(=O)c3[C@H](O)[C@H]12`, for which, in the test listed under Homo sapiens, the Ratio IC50 amounted to 232. Also, the IC50 is 60 nM in test [1] and 13900 nM in test [2].
As for `Cc1ccc([C@@H]2OC[C@@]3(C)[C@@H]4C[C@H](OC(=O)c5ccc(F)cc5)[C@@]5(C)Oc6cc(-c7cccnc7)oc(=O)c6[C@H](O)[C@@H]5[C@@]4(C)CC[C@@H]3O2)cc1`, in the test filed under Homo sapiens, the Ratio IC50 came out at 367. Further, the concentration for half-maximal inhibition (IC50) was 15.1 nM in test [1] and 5540 nM in test [2].
Consider `C[C@@]12CO[C@@H](c3ccccc3)O[C@H]1CC[C@@]1(C)[C@H]2C[C@H](OC(=O)c2ccc(C=O)cc2)[C@@]2(C)Oc3cc(-c4cccnc4)oc(=O)c3[C@H](O)[C@H]12`, for which the Ratio IC50 in the test filed under Homo sapiens was determined as 183. Further, the half-inhibitory concentration (IC50) in test [1] was 30 nM; in test [2] it was 5500 nM.
Turning to `Cc1cccc([C@@H]2OC[C@@]3(C)[C@@H]4C[C@H](OC(=O)c5ccc(C#N)cc5)[C@@]5(C)Oc6cc(-c7cccnc7)oc(=O)c6[C@H](O)[C@@H]5[C@@]4(C)CC[C@@H]3O2)c1`, the Ratio IC50 in the test filed under Homo sapiens is 478. Also, the half-inhibitory concentration (IC50) in test [1] was 7.8 nM; in test [2], 3730 nM.
For `C[C@@]12CO[C@@H](c3ccccc3)O[C@H]1CC[C@@]1(C)[C@H]2C[C@H](OC(=O)c2ccc(F)cc2)[C@@]2(C)Oc3cc(-c4cccnc4)oc(=O)c3[C@H](O)[C@H]12`, in the test listed under Homo sapiens, the Ratio IC50 was found to be 886. Also, the values for the IC50 in test [1] and in test [2] were 7 nM and 6200 nM, respectively.
